Active and inactive are the calls of the source. The rule behind the calls is not given here.

Experimental findings from ChEMBL document CHEMBL4842376, “Design, synthesis and biological evaluation of novel hybrids targeting mTOR and HDACs for potential treatment of hepatocellular carcinoma” (Eur J Med Chem, 2021) are described below.

For one data set, the system named is MCF7. The data set is described as follows: cells. The conditions noted are these: Homo sapiens, MCF7, 72 h. It is filed as functional, cell-based.
In another data set the test system is SK-HEP1. The data set is described as follows: cells. It is filed as functional, cell-based. Particulars: Homo sapiens, SK-HEP1, 72 h.
The next data set relates to PLC-PRF-5. The data set is described as follows: Antiproliferative activity against human PLC-PRF-5 cells assessed as inhibition of cell growth measured after 72 hrs by MTT assay. Format: functional, cell-based. Particulars: PLC-PRF-5, 72 h.
For data set [1], the target named is T1, Protein deacetylase HDAC6 (Homo sapiens) (UniProt Q9UBN7).
T1 sequence (whole entry): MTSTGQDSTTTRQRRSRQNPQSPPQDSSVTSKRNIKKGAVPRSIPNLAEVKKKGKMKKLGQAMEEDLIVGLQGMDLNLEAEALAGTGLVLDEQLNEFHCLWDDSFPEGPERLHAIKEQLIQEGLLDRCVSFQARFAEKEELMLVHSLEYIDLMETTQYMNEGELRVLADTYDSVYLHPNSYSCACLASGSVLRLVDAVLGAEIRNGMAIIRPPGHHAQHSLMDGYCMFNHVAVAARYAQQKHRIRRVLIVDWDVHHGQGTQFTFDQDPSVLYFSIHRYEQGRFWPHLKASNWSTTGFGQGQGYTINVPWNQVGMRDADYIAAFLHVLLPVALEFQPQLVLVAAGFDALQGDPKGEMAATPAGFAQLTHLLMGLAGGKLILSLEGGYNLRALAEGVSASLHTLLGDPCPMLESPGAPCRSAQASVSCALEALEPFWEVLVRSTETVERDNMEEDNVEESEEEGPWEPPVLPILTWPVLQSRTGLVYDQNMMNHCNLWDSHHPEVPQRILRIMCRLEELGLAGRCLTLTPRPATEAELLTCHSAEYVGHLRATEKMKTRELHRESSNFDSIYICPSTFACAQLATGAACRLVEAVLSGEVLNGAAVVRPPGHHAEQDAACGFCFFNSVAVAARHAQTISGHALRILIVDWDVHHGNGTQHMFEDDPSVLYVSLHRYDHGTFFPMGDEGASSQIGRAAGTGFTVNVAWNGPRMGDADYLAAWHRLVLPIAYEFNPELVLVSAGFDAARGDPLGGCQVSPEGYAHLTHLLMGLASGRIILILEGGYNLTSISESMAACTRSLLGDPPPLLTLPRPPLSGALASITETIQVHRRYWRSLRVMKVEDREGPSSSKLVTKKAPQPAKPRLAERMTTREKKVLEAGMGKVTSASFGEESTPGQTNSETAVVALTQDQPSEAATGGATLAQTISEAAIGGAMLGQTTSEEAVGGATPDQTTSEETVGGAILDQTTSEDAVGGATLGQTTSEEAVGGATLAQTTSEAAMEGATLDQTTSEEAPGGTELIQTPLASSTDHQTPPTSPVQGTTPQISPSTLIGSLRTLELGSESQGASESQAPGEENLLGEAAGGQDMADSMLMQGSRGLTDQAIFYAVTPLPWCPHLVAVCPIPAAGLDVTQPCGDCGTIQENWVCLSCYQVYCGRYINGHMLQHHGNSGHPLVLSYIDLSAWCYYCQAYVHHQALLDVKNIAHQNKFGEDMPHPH
As to the kind of experiment: Inhibition of HDAC6 (unknown origin) at 1 uM using Ac-peptide as a substrate pretreated for 15 mins followed by substrate addition relative to control.

Data set [2] deals with T2, Protein deacetylase HDAC6 (Homo sapiens, UniProt Q9UBN7).
T2 sequence (Q9UBN7 whole entry): T1 sequence (whole entry)
The data set is described as follows: Inhibition of HDAC6 (unknown origin) using Ac-peptide as a substrate pretreated for 15 mins followed by substrate addition.

The test system of the next data set is L02. As to the kind of experiment: cells. Format: ADME, cell-based. Particulars: Homo sapiens, L02, 72 h.
For data set [3], the target named is Histone deacetylase (Homo sapiens) (UniProt Q13547+O15379+Q9UBN7+Q92769+Q9UQL6+Q8WUI4+Q9BY41+Q96DB2+P56524+Q9UKV0+Q969S8). The data set is described as follows: Inhibition of HDAC in human HepG2 cells assessed as upregulation of alpha-tubulin acetylation at 6 uM measured after 24 hrs by western blot analysis. Format: cell-based.
For data set [4], the target named is Serine/threonine-protein kinase mTOR (Homo sapiens, UniProt P42345). As to the kind of experiment: Activation of mTOR in human HepG2 cells assessed as increase in p70S6K phosphorylation at 1.5 uM measured after 24 hrs by western blot analysis. It is filed as cell-based. Particulars: filed as activator.
Data set [5] has as its system HepG2. As to the kind of experiment: Induction of cell cycle arrest in human HepG2 cells assessed as accumulation of cells in G0/G1 phase at 1.5 uM measured after 24 hrs by propidium iodide staining based flow cytometry analysis (reference value: 52.7 to 63.2%). Format: functional.
Data set [6] deals with HepG2. The data set is described as follows: Induction of cell cycle arrest in human HepG2 cells assessed as accumulation of cells in S phase at 1.5 uM measured after 24 hrs by propidium iodide staining based flow cytometry analysis (Rvb= 17 to 26.4%). Format: functional.
Data set [7] concerns HepG2. The data set is described as follows: Induction of cell cycle arrest in human HepG2 cells assessed as accumulation of cells in G0/G1 phase at 3 uM measured after 24 hrs by propidium iodide staining based flow cytometry analysis (reference value: 52.7 to 63.2%). Format: functional.
Data set [8] relates to HepG2. The data set is described as follows: Induction of cell cycle arrest in human HepG2 cells assessed as accumulation of cells in G2/M phase at 3 uM measured after 24 hrs by propidium iodide staining based flow cytometry analysis (reference value: 17.8 to 18.5%). It is filed as functional.
Data set [9] concerns HepG2. The data set is described as follows: Induction of cell cycle arrest in human HepG2 cells assessed as accumulation of cells in S phase at 6 uM measured after 24 hrs by propidium iodide staining based flow cytometry analysis (reference value: 17 to 26.4%). Format: functional.
In data set [10] the test system is HepG2. The data set is described as follows: Induction of apoptosis in human HepG2 cells assessed as early apoptotic cells at 2.5 uM measured after 24 hrs by Annexin V-FITC/PI staining based flow cytometry analysis (Rvb= 6.15%). Format: functional.
Data set [11] concerns HepG2. As to the kind of experiment: Induction of apoptosis in human HepG2 cells assessed as late apoptotic cells at 2.5 uM measured after 24 hrs by Annexin V-FITC/PI staining based flow cytometry analysis (Rvb= […]). It is filed as functional.
The subject of data set [12] is HepG2. As to the kind of experiment: Induction of apoptosis in human HepG2 cells assessed as live cells at 10 uM measured after 24 hrs by Annexin V-FITC/PI staining based flow cytometry analysis (Rvb= 84.6%). It is filed as functional.
In data set [13] the test system is HepG2. As to the kind of experiment: Induction of apoptosis in human HepG2 cells assessed as early apoptotic cells at 10 uM measured after 24 hrs by Annexin V-FITC/PI staining based flow cytometry analysis (Rvb= 6.15%). Format: functional.
For data set [14], the system named is HepG2. As to the kind of experiment: Induction of apoptosis in human HepG2 cells assessed as late apoptotic cells at 10 uM measured after 24 hrs by Annexin V-FITC/PI staining based flow cytometry analysis (Rvb= […]). Format: functional.
Data set [15] relates to HepG2. The data set is described as follows: Induction of apoptosis in human HepG2 cells assessed as dead cells at 10 uM measured after 24 hrs by Annexin V-FITC/PI staining based flow cytometry analysis (Rvb= 0.082%). Format: functional.
A short description of data set [16]: Metabolic stability in rat liver microsomes assessed as parent compound remaining at 10 ug/ml measured after 1 hr in the presence of NADPH by HPLC analysis. It is filed as ADME, Microsome. The conditions noted are these: at 10 µg/mL.
The next data set can be described thus: in vitro. Particulars: human, L02 cells versus HepG2 cells.

Description for L02: Cytotoxicity against human L02 cells assessed as reduction in cell viability measured after 72 hrs by MTT assay
Description for MCF7: Antiproliferative activity against human MCF7 cells assessed as inhibition of cell growth measured after 72 hrs by MTT assay
Description for SK-HEP1: Antiproliferative activity against human SK-HEP1 cells assessed as inhibition of cell growth measured after 72 hrs by MTT assay
Description for in vitro: Selectivity index, ratio of IC50 for cytotoxicity against human L02 cells to IC50 for antiproliferative activity against human HepG2 cells

`Nc1ncnc2c1c(-c1cnc3[nH]ccc3c1)nn2CCCCCCCCC(=O)NO`: the IC50 came to 24.7 µM in the data set with MCF7; 11.2 µM in the data set on SK-HEP1; 14.9 µM in the data set on PLC-PRF-5; 9.54 nM in data set [2]; 35.1 µM in the data set on L02. Further, the inhibition in data set [1] was 99.2%. The inhibition result in data set [3] is “Active”. For the same compound, the result in [4] was Active. Moreover, the Activity is listed as 60.1% with HepG2 [5]; 20.2% with HepG2 [6]; 64.5% in the data set on HepG2 [7]; 18.6% in the data set on HepG2 [8]; 11.5% in the data set on HepG2 [9]; 17.4% in the data set with HepG2 [10]. Also, the Activity with HepG2 [11] amounted to 12.3%; in the data set on HepG2 [12], 62%; in the data set with HepG2 [13], 19.7%; in the data set on HepG2 [14], 17.8%; with HepG2 [15], 0.56%. Further, in data set [16] (liver microsomes, read-out: Stabilty), the remaining at 1 h, 10 ug/ml was determined as 55.2%. Also, the selectivity ratio in the data set “in vitro” amounted to 11.5.
For the compound `Nc1nc2cc(-c3nn(CCCCCCC(=O)NO)c4ncnc(N)c34)ccc2o1`, the IC50 in the data set with MCF7 was 11.8 µM; in the data set with SK-HEP1, 2.69 µM; in the data set with PLC-PRF-5, more than 50 µM; in data set [2], 10.3 nM; in the data set on L02 it was 24.8 µM. The inhibition in data set [1] turned out to be 99%. Moreover, in data set [3], the inhibition result is “Active”. For the same compound, the Activity in the data set with HepG2 [5] was found to be 66.2%; with HepG2 [6] it was 16.4%; in the data set with HepG2 [7], 70.4%; with HepG2 [8] it was 10.8%; in the data set with HepG2 [9] it was 7.78%; in the data set on HepG2 [10] it was 28.1%. Moreover, the Activity in the data set with HepG2 [11] came out at 8.06%; in the data set on HepG2 [12], 42.2%; with HepG2 [13], 30.4%; in the data set with HepG2 [14], 27.2%; in the data set with HepG2 [15] it was 0.26%. The Stabilty result in data set [16] (microsomes, 1 h) is “Stable”. The selectivity ratio in the data set “in vitro” worked out at 15.4.
